Assay results taken from the supplement of paper PMC10307832.

Assays:
Assay in all cases: relative viability (nuclei count vs DMSO), 5 days (fraction); higher = more cells survive
[1] = system: ABC-1
Outline: (§1)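 Lung cancer cell lines were seeded in 1536-well plates and dosed by pin tool the next day, with either a single drug or a fixed anchor-drug dose combined with five library-drug doses (not always all listed) spaced in √10 steps. Five days later, one step fixed the cells and stained their nuclei (final 0.05% Triton X-100, 1% formaldehyde, 1 ug/ml Hoechst), and nuclei were counted on 4× images. Relative viability is the nuclei count in treated wells divided by the count in vehicle wells, and each value is the median of duplicate plates.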

[2] = system: ChaGo-K-1
Outline: as §1

[3] = system: HCC-78
Outline: as §1

[4] = system: HOP-62
Outline: as §1

[5] = system: LCLC-97TM1
Outline: as §1

[6] = system: LOU-NH91
Outline: as §1

[7] = system: NCI-H1355
Outline: as §1

[8] = system: NCI-H1437
Outline: as §1

[9] = system: NCI-H1755
Outline: as §1

[10] = system: NCI-H1792
Outline: as §1

[11] = system: NCI-H2009
Outline: as §1

[12] = system: NCI-H2023
Outline: as §1

[13] = system: NCI-H2085
Outline: as §1

[14] = system: NCI-H23
Outline: as §1

[15] = system: NCI-H2405
Outline: as §1

[16] = system: NCI-H322M
Outline: as §1

[17] = system: NCI-H441
Outline: as §1

[18] = system: NCI-H650
Outline: as §1

[19] = system: NCI-H727
Outline: as §1

[20] = system: RERF-LC-KJ
Outline: as §1

[21] = system: UMC-11
Outline: as §1

## O=C(O)CCCCC(CCSCc1ccccc1)SCc1ccccc1 (stereo not given) [CPI-613] + CC(C)C[C@H](NC(=O)[C@H](Cc1ccccc1)NC(=O)c1cnccn1)B(O)O [Bortezomib] (partner 0.002 µM)
[1]; first compound 5 µM
  relative viability: 0.305
[1]; first compound 15.81 µM
  relative viability: 0.298
[1]; first compound 50 µM
  relative viability: 0.302
[1]; first compound 158.11 µM
  relative viability: 0.232
[1]; first compound 500 µM
  relative viability: 0.242
[2]; first compound 5 µM
  relative viability: 0.836
[2]; first compound 15.81 µM
  relative viability: 0.855
[2]; first compound 50 µM
  relative viability: 0.804
[2]; first compound 158.11 µM
  relative viability: 0.671
[2]; first compound 500 µM
  relative viability: 0.554
[3]; first compound 5 µM
  relative viability: 0.5
[3]; first compound 15.81 µM
  relative viability: 0.397
[3]; first compound 50 µM
  relative viability: 0.553
[3]; first compound 158.11 µM
  relative viability: 0.445
[3]; first compound 500 µM
  relative viability: 0.602
[4]; first compound 5 µM
  relative viability: 0.511
[4]; first compound 15.81 µM
  relative viability: 0.545
[4]; first compound 50 µM
  relative viability: 1.26
[4]; first compound 158.11 µM
  relative viability: 0.464
[4]; first compound 500 µM
  relative viability: 0.0422
[5]; first compound 5 µM
  relative viability: 0.728
[5]; first compound 15.81 µM
  relative viability: 0.276
[5]; first compound 50 µM
  relative viability: 0.583
[5]; first compound 158.11 µM
  relative viability: 0.532
[5]; first compound 500 µM
  relative viability: 0.819
[6]; first compound 5 µM
  relative viability: 0.49
[6]; first compound 15.81 µM
  relative viability: 0.524
[6]; first compound 50 µM
  relative viability: 0.393
[6]; first compound 158.11 µM
  relative viability: 0.435
[6]; first compound 500 µM
  relative viability: 0.467
[7]; first compound 5 µM
  relative viability: 1.2
[7]; first compound 15.81 µM
  relative viability: 1.22
[7]; first compound 50 µM
  relative viability: 1.23
[7]; first compound 158.11 µM
  relative viability: 0.646
[7]; first compound 500 µM
  relative viability: 0.611
[8]; first compound 5 µM
  relative viability: 0.479
[8]; first compound 15.81 µM
  relative viability: 0.397
[8]; first compound 50 µM
  relative viability: 0.493
[8]; first compound 158.11 µM
  relative viability: 0.115
[8]; first compound 500 µM
  relative viability: 0.0227
[9]; first compound 5 µM
  relative viability: 0.959
[9]; first compound 15.81 µM
  relative viability: 0.945
[9]; first compound 50 µM
  relative viability: 0.875
[9]; first compound 158.11 µM
  relative viability: 0.707
[9]; first compound 500 µM
  relative viability: 0.114
[10]; first compound 5 µM
  relative viability: 0.889
[10]; first compound 15.81 µM
  relative viability: 0.886
[10]; first compound 50 µM
  relative viability: 0.996
[10]; first compound 158.11 µM
  relative viability: 0.836
[10]; first compound 500 µM
  relative viability: 0.893
[11]; first compound 5 µM
  relative viability: 1.07
[11]; first compound 15.81 µM
  relative viability: 0.942
[11]; first compound 50 µM
  relative viability: 0.884
[11]; first compound 158.11 µM
  relative viability: 0.0722
[11]; first compound 500 µM
  relative viability: 0.0082
[12]; first compound 5 µM
  relative viability: 0.932
[12]; first compound 15.81 µM
  relative viability: 0.947
[12]; first compound 50 µM
  relative viability: 0.961
[12]; first compound 158.11 µM
  relative viability: 0.042
[12]; first compound 500 µM
  relative viability: 0.0072
[13]; first compound 5 µM
  relative viability: 0.984
[13]; first compound 15.81 µM
  relative viability: 0.847
[13]; first compound 50 µM
  relative viability: 0.995
[13]; first compound 158.11 µM
  relative viability: 0.873
[13]; first compound 500 µM
  relative viability: 0.194
[14]; first compound 5 µM
  relative viability: 0.958
[14]; first compound 15.81 µM
  relative viability: 1.1
[14]; first compound 50 µM
  relative viability: 0.895
[14]; first compound 158.11 µM
  relative viability: 0.175
[14]; first compound 500 µM
  relative viability: 0.0214
[15]; first compound 5 µM
  relative viability: 0.986
[15]; first compound 15.81 µM
  relative viability: 0.961
[15]; first compound 50 µM
  relative viability: 0.891
[15]; first compound 158.11 µM
  relative viability: 0.913
[15]; first compound 500 µM
  relative viability: 0.852
[16]; first compound 5 µM
  relative viability: 1.19
[16]; first compound 15.81 µM
  relative viability: 1.2
[16]; first compound 50 µM
  relative viability: 1.27
[16]; first compound 158.11 µM
  relative viability: 1.31
[16]; first compound 500 µM
  relative viability: 0.908
[17]; first compound 5 µM
  relative viability: 0.447
[17]; first compound 15.81 µM
  relative viability: 0.44
[17]; first compound 50 µM
  relative viability: 0.537
[17]; first compound 158.11 µM
  relative viability: 0.129
[17]; first compound 500 µM
  relative viability: 0.005
[18]; first compound 5 µM
  relative viability: 0.828
[18]; first compound 15.81 µM
  relative viability: 0.617
[18]; first compound 50 µM
  relative viability: 0.92
[18]; first compound 158.11 µM
  relative viability: 0.689
[18]; first compound 500 µM
  relative viability: 0.452
[19]; first compound 5 µM
  relative viability: 0.806
[19]; first compound 15.81 µM
  relative viability: 0.782
[19]; first compound 50 µM
  relative viability: 0.792
[19]; first compound 158.11 µM
  relative viability: 0.665
[19]; first compound 500 µM
  relative viability: 0.0714
[20]; first compound 5 µM
  relative viability: 1.1
[20]; first compound 15.81 µM
  relative viability: 1.13
[20]; first compound 50 µM
  relative viability: 1.08
[20]; first compound 158.11 µM
  relative viability: 1.07
[20]; first compound 500 µM
  relative viability: 0.958
[21]; first compound 5 µM
  relative viability: 0.703
[21]; first compound 15.81 µM
  relative viability: 0.496
[21]; first compound 50 µM
  relative viability: 0.692
[21]; first compound 158.11 µM
  relative viability: 0.641
[21]; first compound 500 µM
  relative viability: 0.0673
